Measured values: patent US20240261292A1, “COMBINATION THERAPIES” (Janssen Pharmaceutica NV, priority 2021, published 2024)
Counter-ions that a name gives are not always drawn.

Test: Mouse PK (in vivo T1/2 and oral bioavailability)
Conditions: fasted male CD-1 mice, single IV 0.5 or 1.0 mg/kg; formulating agent: A HP-β-CD, A3 Pyrogen free water
Protocol: 3) Mouse PK (In Vivo T1/2 and Oral Bioavailability)
In vivo pharmacokinetics (PK) were assessed in fasted male CD-1 mice (age 6-8 weeks) following a single intravenous (IV, 0.5 or 1.0 mg/kg administered at 2.5 ml/kg) or oral (PO, 5 mg/kg administered at 10 ml solution/kg) dose of test article formulated in a 20% (w:vol) HP-β-CD solution or in Pyrogen free water.
Plasma and/or whole blood samples were collected from the dorsal metatarsal vein at desired timepoints via serial capillary microsampling (approx. 0.03 mL) using EDTA as an anticoagulant. Concentrations of compound in the plasma and blood samples were analyzed using a qualified LC-MS/MS method. In silico analysis of main pharmacokinetic parameters was performed using WinNonlin (Phoenix™, version 6.1) or similar software.)

Q: Which “In vivo T1/2 (IV)” value does the source give for `CCN(C(=O)c1cc(F)ccc1Oc1nncnc1N1CCC2(C1)CN([C@H](CCCN(C)CCOC)C(C)C)C2)C(C)C` [Compound A3, (R)-N-ethyl-5-fluoro-N-isopropyl-2-((5-(2-(6-((2-methoxyethyl) (methyl)amino)-2-methylhexan-3-yl)-2,6-diazaspiro[3.4]octan-6-yl)-1,2,4-triazin-6-yl)oxy) benzamide oxalate] here?
A: 9.0 h
